Results as given in ChEMBL document CHEMBL4665629, “An optimised series of substituted N-phenylpyrrolamides as DNA gyrase B inhibitors” (Eur J Med Chem, 2019).
In brackets after ≈: the same amount, converted by molar mass.

Legend:
Acinetobacter baumannii = experiment: Antibacterial activity against Acinetobacter baumannii ATCC 19606 assessed as bacterial growth inhibition at 50 uM incubated for 24 hrs by CLSI protocol based broth microdilution assay relative to control; format: functional; details: ATCC 19606 = CIP 70.34 = JCM 6841
Staphylococcus aureus [1] = experiment: Antibacterial activity against […] Staphylococcus aureus ATCC 25923 assessed as minimum inhibitory concentration required for >=90% inhibition of bacterial growth by CLSI protocol based broth microdilution assay; format: functional
Staphylococcus aureus [2] = experiment: Antibacterial activity against methicillin-resistant Staphylococcus aureus ATCC 43300 assessed as minimum inhibitory concentration required for >=90% inhibition of bacterial growth in presence of 50% inactivated human serum by CLSI protocol based broth microdilution assay; format: functional
Staphylococcus aureus [3] = experiment: Antibacterial activity against methicillin-resistant and vancomycin-intermediate Staphylococcus aureus ATCC 700699 assessed as minimum inhibitory concentration required for >=90% inhibition of bacterial growth by CLSI protocol based broth microdilution assay; format: functional
Staphylococcus aureus [4] = experiment: Antibacterial activity against methicillin-resistant Staphylococcus aureus ATCC 43300 assessed as minimum inhibitory concentration required for >=90% inhibition of bacterial growth by CLSI protocol based broth microdilution assay; format: functional
Enterococcus faecium = experiment: Antibacterial activity against vancomycin-resistant Enterococcus faecium ATCC 700221 assessed as minimum inhibitory concentration required for >=90% inhibition of bacterial growth by CLSI protocol based broth microdilution assay; format: functional
Enterococcus faecalis = experiment: Antibacterial activity against Enterococcus faecalis ATCC 29212 assessed as minimum inhibitory concentration required for >=90% inhibition of bacterial growth by CLSI protocol based broth microdilution assay; format: functional
[5] = molecular target: Topoisomerase IV (Staphylococcus aureus) (UniProt P0C1U9+P0C1S7); experiment: Inhibition of Staphylococcus aureus DNA topoisomerase 4 assessed as residual activity at 1 uM using biotinylated oligonucleotide as substrate incubated for 30 mins in presence of ATP by fluorescence-based microplate reader assay relative to control; format: protein-complex assay
Escherichia coli [6] = experiment: Antibacterial activity against wild type Escherichia coli MG1655 assessed as minimum inhibitory concentration required for >=90% inhibition of bacterial growth in presence of 50 ug/ml phenylalanine-arginine beta-naphthylamide; format: functional
Escherichia coli [7] = experiment: Antibacterial activity against Escherichia coli MG1655 harboring […] mutant assessed as minimum inhibitory concentration required for >=90% inhibition of bacterial growth in presence of 50 ug/ml phenylalanine-arginine beta-naphthylamide; format: functional
Escherichia coli [8] = experiment: Antibacterial activity against Escherichia coli MG1655 harboring […]/D87N and ParC S80I/E84G mutants assessed as minimum inhibitory concentration required for >=90% inhibition of bacterial growth in presence of 50 ug/ml phenylalanine-arginine beta-naphthylamide; format: functional
Klebsiella pneumoniae [9] = experiment: Antibacterial activity against wild type Klebsiella pneumoniae ATCC 10031 harboring GyrA S83F mutant assessed as minimum inhibitory concentration required for >=90% inhibition of bacterial growth in presence of 10 ug/ml phenylalanine-arginine beta-naphthamide; format: functional
Klebsiella pneumoniae [10] = experiment: Antibacterial activity against wild type Klebsiella pneumoniae ATCC 10031 harboring GyrA S83F/D87G and ParC S80I/E84G mutants assessed as minimum inhibitory concentration required for >=90% inhibition of bacterial growth in presence of 10 ug/ml phenylalanine-arginine beta-naphthamide; format: functional

For `CCn1cc(C(=O)O)c(=O)c2ccc(NC(=O)c3[nH]c(C)c(Cl)c3Cl)cc21`, the inhibition at 50 µM (Acinetobacter baumannii) was 2%, the MIC (Staphylococcus aureus [1]) was 2.5 µM (≈ 1.02 µg/mL) and the MIC (Staphylococcus aureus [2]) was 32 µM. For the same compound, the MIC (Staphylococcus aureus [3]) was 2.5 µM (≈ 1.02 µg/mL), the MIC (Staphylococcus aureus [4]) was 2.5 µM (≈ 1.02 µg/mL) and the MIC (Enterococcus faecium) was 0.72 µM (≈ 0.294 µg/mL). For the same compound, the MIC (Enterococcus faecalis) was 1.56 µM (≈ 0.637 µg/mL), the Activity [5] was 100% and the MIC (Escherichia coli [6]) was 2.5 µM. It also gave an MIC (Escherichia coli [7]) of 2.5 µM, an MIC (Escherichia coli [8]) of 2.5 µM and an MIC (Klebsiella pneumoniae [9]) of 1.2 µM. The MIC (Klebsiella pneumoniae [10]) was 1.2 µM.
